Assay results reported in patent US20150087682A1, “Method for Treating Scleroderma” (The Regents of the University of Colorado, A body corporate, priority 2012, published 2015).

Biological target: TLR4 (Homo sapiens, UniProt O00206)
Experiment: Inhibition of the TLR4 signaling pathway / TLR4 binding
Experimental: These compounds were evaluated for inhibition of the TLR4 signaling pathway in vitro and in vivo.

Sequence of TLR4 (O00206 24-839, species assumed): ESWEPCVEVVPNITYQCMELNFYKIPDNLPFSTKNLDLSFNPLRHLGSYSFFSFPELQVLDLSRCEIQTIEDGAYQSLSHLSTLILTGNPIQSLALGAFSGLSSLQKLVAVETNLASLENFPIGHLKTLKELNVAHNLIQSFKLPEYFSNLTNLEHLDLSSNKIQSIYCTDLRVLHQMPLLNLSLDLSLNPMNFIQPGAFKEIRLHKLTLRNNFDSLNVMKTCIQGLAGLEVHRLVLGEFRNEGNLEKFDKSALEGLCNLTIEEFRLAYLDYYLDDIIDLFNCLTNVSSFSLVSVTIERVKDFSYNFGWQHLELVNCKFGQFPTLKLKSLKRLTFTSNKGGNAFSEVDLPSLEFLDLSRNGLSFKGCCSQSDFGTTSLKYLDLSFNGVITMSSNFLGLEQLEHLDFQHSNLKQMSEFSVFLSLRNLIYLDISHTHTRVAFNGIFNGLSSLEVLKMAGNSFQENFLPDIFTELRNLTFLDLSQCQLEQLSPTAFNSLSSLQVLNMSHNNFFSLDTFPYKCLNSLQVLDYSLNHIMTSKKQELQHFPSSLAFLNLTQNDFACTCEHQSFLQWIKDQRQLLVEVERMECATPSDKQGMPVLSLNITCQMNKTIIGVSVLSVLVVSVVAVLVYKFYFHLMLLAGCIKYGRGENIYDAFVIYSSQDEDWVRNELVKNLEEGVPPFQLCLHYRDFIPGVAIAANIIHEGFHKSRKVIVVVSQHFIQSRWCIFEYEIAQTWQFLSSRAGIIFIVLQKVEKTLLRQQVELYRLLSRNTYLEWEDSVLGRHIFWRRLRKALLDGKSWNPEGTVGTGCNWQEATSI

TLR4 binding: substantially inhibited TLR4 binding
SMILES: CCOc1ccc(OCC(O)CN(C)Cc2c(C)nn(Cc3ccccc3Cl)c2C)cc1 (stereo not shown) [Compound A-1, 1-(((1-(2-chlorobenzyl)-3,5-dimethyl-1H-pyrazol-4-yl)methyl)(methyl)amino)-3-(4-ethoxyphenoxy)propan-2-ol]
